Literature values in patent publication US20170051350A1, “METHOD AND SYSTEM TO PREDICT RESPONSE TO TREATMENTS FOR MENTAL DISORDERS” (Pathway Genomics Corporation, priority 2013, published 2017).
Read-outs that look alike come from different tables or passages of the source.

Columns and labels:
[1] = target: SLC6A4 (Homo sapiens, UniProt P31645); details: in vivo; cited from earlier work
[2] = system: HTR2A; details: cited from earlier work

Chain of SLC6A4 (P31645 whole entry): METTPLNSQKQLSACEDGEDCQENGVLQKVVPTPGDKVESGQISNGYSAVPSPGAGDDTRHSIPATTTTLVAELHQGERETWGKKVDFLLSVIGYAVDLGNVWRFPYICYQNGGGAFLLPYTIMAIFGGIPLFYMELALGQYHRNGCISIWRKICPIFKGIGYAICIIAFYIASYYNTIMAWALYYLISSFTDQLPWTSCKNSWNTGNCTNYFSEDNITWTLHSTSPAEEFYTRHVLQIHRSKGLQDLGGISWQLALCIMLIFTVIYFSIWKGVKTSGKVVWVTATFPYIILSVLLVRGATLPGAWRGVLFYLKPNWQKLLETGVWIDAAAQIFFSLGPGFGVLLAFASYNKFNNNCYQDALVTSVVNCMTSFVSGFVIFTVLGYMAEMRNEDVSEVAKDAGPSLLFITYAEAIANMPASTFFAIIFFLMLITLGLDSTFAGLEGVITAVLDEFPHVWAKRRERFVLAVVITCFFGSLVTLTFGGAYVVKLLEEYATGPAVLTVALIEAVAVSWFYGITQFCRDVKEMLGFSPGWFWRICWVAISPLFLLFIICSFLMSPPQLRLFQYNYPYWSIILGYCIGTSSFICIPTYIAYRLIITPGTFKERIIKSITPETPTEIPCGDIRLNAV

## COCCCC/C(=N\OCCN)c1ccc(C(F)(F)F)cc1 [Fluvoxamine]
[1]
  risk of adverse effects if treated for major depressive disorder: Patient has decreased risk of adverse effects if treated with fluvoxamine for major depressive disorder (PMID
[2]; HTR2A rs6311 A/A
  risk of adverse effects (adverse reactions): Patient has decreased risk of adverse effects, such as headache, nausea, drowsiness, agitation, sexual dysfunction or
[2]; HTR2A rs6311 A/A, listed as fluvoxamine
  risk of adverse effects (adverse reactions): Decreased risk with
[2]; HTR2A rs6311 G/A
  risk of adverse effects (adverse reactions): Typical risk
